“Also recorded” adds a separate entry of the source.
Experiments:
[1] = system: eye bank eyes; assay: Dye solution instilled by injection into the anterior chamber of eye bank eyes, viewed by naked eye / operating microscope; set-up: species or system human; conditions: for egress of dye from the eye into outflow vessels after injection into the anterior chamber: eye bank eyes, Indigo Carmine 0.004, 0.04, 0.4 wt. %, other ophthalmic dyes for comparison
Text: After an incision is made into the anterior chamber of the eye, a small amount of aqueous humor is expressed and the dye solution is instilled by injection into the anterior chamber. The dye solution is typically left in place for 30 seconds, during which time it stains the anterior capsule of the lens. Excess dye solution is then expelled, usually using a viscoelastic device or flushed out with a balanced salt solution.
Dye solutions containing 0.004 wt. %, 0.04 wt. %, and 0.4 wt. % of Indigo Carmine (prepared by serial dilutions of a 0.4 wt. % Indigo Carmine solution provided by Micro-Tech (Nanjing) Co.) were instilled by injection into the anterior chamber of seven eye bank eyes following the dye solution instillation procedure detailed above.
Special imaging techniques were not required.

[2] = system: ocular surface squamous neoplastic lesion; assay: Topical application of dye to a human eye, slit lamp view of ocular surface squamous neoplastic lesion; format: in vivo
Text: FIG. 8 is a slit lamp view of a human eye wherein an ocular surface squamous neoplastic lesion is delineated after topical application of Indigo Carmine. A blue outline is seen around the perimeter of the white ocular surface squamous neoplastic lesion.
In certain embodiments, the dye delineates eye surface dysplasia and malignancy (ocular surface squamous neoplasia) as has been found in the gut (see, e.g., Oyama, T., “Diagnostic strategies of superficial Barrett's esophageal cancer for endoscopic submucosal dissection”, Dig. Endosc., 2013, 25 Suppl 1:7-12) (see FIG. 7)

[3] = system: porcine eye; assay: Dye injected into the lenticular plain after Small Incision Lenticule Extraction (SMILE) in a porcine eye; conditions: injected along the laser incision planes
Text: FIG. 9A is an operating microscope view of a porcine eye upon which a Small Incision Lenticule Extraction procedure (SMILE) has been carried out. From this view, circular horizontal plains have been cut in the corneal stroma, a superficial smaller diameter cut and a deeper cut of larger diameter. The cuts join in the corneal periphery, thereby creating a lenticule. The arrows show the edge of these cuts.
FIG. 9B is an operating microscope view of a porcine eye upon which a Small Incision Lenticule Extraction procedure (SMILE) has been carried out. Indigo Carmine has been injected into the lenticular plain. The white arrows indicate the complete circular edge of the lenticule.
Minimally invasive corneal procedures for correcting refractive error (see, e.g., Titiyal, J. S., et al., “Learning Curve of Small Incision Lenticule Extraction: Challenges and Complications”, Cornea, 2017, 36:1377-1382) have also been developed in recent years. For example, in Small Incision Lenticule Extraction (SMILE), a lenticule of corneal stroma is created within the stroma using a laser and then removed through a small incision. Occasionally, the cuts that create the lenticule are discontinuous, making lenticule extraction difficult. […]

[4] = system: protein; conditions: sodium salt; cited from earlier work
[5] = cited from earlier work
[6] = reduced state, fluorescent; cited from earlier work
[7] = system: anterior capsule; conditions: cited from earlier work
[8] = system: ocular structures; conditions: cited from earlier work
[9] = anterior chamber perfused with dye solution, sodium salt

Molecule: O=C1C(=C2Nc3ccc(S(=O)(=O)[O-])cc3C2=O)Nc2ccc(S(=O)(=O)[O-])cc21.[Na+].[Na+] [Indigo Carmine, 5,5′-indigodisulfonic acid sodium salt]
- staining of the canal of Schlemm [1, 9]: heavily; also recorded: heavy staining
- staining of the trabecular meshwork [1, 9]: lightly; also recorded: more lightly stained
- visibility of dye in the collector channels on the surface of the eye ([1]; at each concentration: 0.004, 0.04 and 0.4 wt. %): visible to the naked eye of the surgeon as it appeared in the collector channels on the surface of the eye
- staining of the anterior capsule of the lens ([1]; capsulorhexis procedure, eye bank eye): lightly stained
- dye in the deep scleral plexus ([1]; conjunctiva reflected away, sodium salt): observed in the deep scleral plexus; also recorded: deeper vessels are seen, evidence of the deep scleral plexus
- egress of dye from the eye into outflow vessels after injection into the anterior chamber ([1]; sodium salt): appeared in the fine vessels in the conjunctiva adjacent to the limbus, the aqueous veins and the conjunctival venous system; also recorded: some of the dye exiting the eye through the aqueous veins
- visibility of dye on the surface of the instilled eye ([1]; no special imaging): easily visible to the naked eye of the surgeon
- delineation of ocular surface squamous neoplastic lesion [2]: delineated
- identification of laser incision planes and lenticule edge [3]: possible to identify and determine the extent of these incisions
- protein binding [4]: low protein binding; also recorded: relatively reduced
- solubility in water [5]: soluble in water
- absorption maximum [6]: 436 nm
- emission maximum [6]: 528 nm

Molecule: CC1(C)C(/C=C/C=C/C=C/C=C2\N(CCCCS(=O)(=O)O)c3ccc4ccccc4c3C2(C)C)=[N+](CCCCS(=O)(=O)[O-])c2ccc3ccccc3c21 [Indocyanine Green]
- egress of dye from the eye into outflow vessels after injection into the anterior chamber [1]: appears to remain within the eye

Molecule: CCN(CC)c1ccc(C(=C2C=CC(=[N+](CC)CC)C=C2)c2cc(O)c(S(=O)(=O)O)cc2S(=O)(=O)O)cc1 [Patent Blue]
- egress of dye from the eye into outflow vessels after injection into the anterior chamber [1]: appears to remain within the eye

Molecule: Cc1cc(-c2ccc(/N=N/c3c(S(=O)(=O)O)cc4cc(S(=O)(=O)O)cc(N)c4c3O)c(C)c2)ccc1/N=N/c1c(S(=O)(=O)O)cc2cc(S(=O)(=O)O)cc(N)c2c1O [Trypan Blue]
- staining of the trabecular meshwork ([1]; anterior chamber perfused with dye solution): particularly enhances trabecular meshwork staining
- egress of dye from the eye into outflow vessels after injection into the anterior chamber [1]: appears to remain within the eye
- lowest concentration at which staining can occur [7]: 0.0125 wt. %
- identifying and visualizing anterior lens capsule and trabecular meshwork [8]: effective
- identifying or visualizing the canal of Schlemm [8]: not effective

Molecule: Brilliant Blue
- egress of dye from the eye into outflow vessels after injection into the anterior chamber [1]: appears to remain within the eye

Source: US20220151827A1, “Ophthalmic Compositions, and Ocular Uses Thereof, of Indigo Carmine” (priority 2019, published 2022)
